This passage reports oral bioavailability, aqueous solubility and half-life results from US20070275969A1, “NANOPARTICLES FOR ORAL ADMINISTRATION OF PHARMACEUTICAL AGENTS OF LOW SOLUBILITY” (priority 1995, published 2007).

One data set can be described thus: oral bioavailability. The following applies: in vivo. As to the method:
(§1) Since then several types of HIV-1 protease inhibitors have become known. […] The latter effect is presently attributed to the extremely low aqueous solubility (8 mg/1000 ml at pH 7.4).

The nature of data set [1]: aqueous solubility of the active agent. It counts as physicochemical. The note with it: pH 7.4. As to the method: as §1
A short description of data set [2]: half-life in in-vivo pharmaceutical models (mouse). The note with it: some in-vivo pharmaceutical models (mouse). How it is done: as §1

With `COc1ccc(C[C@H](C[C@H](O)[C@H](Cc2ccccc2)NC(=O)OC(C)(C)C)C(=O)N[C@H](C(=O)N[C@@H](Cc2ccccc2)C(=O)N2CCOCC2)C(C)C)cc1` [HIV-1 protease inhibitor (A), 5(S)-tert.-Butoxycarbonyl-amino-4(S)-hydroxy-2(R)-4-methoxyphenylmethyl-6-phenyl-hexanoyl-(L)-Val-(L)-Phe-morpholin-4-ylamide], the oral bioavailability entry in the data set “oral bioavailability” is reported as “insufficient oral bioavailability”. Moreover, in data set [1], the aqueous solubility stood at 8 mg/1000 ml. For the same compound, in data set [2], the half-life result is listed as “relatively short half-life”.
